Data as given in the NIST ThermoML archive (doi:10.1021/je034188o).
Numbers after ± are expanded uncertainties.

Assay: cn = amount concentration of the nth substance listed, in mol/dm3
Conditions: 101 kPa, Liquid

ClC(Cl)(Cl)Cl [tetrachloromethane] + C1COCCOCCOCCOCCOCCO1
c2 = 0
Conditions	mass density [kg/m3]
293.15 K	1593.39 ± 1.9
298.15 K	1583.71 ± 1.9
303.15 K	1574.2 ± 1.9
308.15 K	1564.65 ± 1.9

C1COCCOCCOCCOCCOCCO1 [1,4,7,10,13,16-hexaoxacyclooctadecane] + ClC(Cl)(Cl)Cl
Conditions	mass density [kg/m3]
293.15 K, c1 = 0.06567	1586.34 ± 1.9
293.15 K, c1 = 0.09829	1582.87 ± 1.9
293.15 K, c1 = 0.1283	1579.71 ± 1.9
293.15 K, c1 = 0.1856	1573.71 ± 1.9
293.15 K, c1 = 0.2464	1567.44 ± 1.9
293.15 K, c1 = 0.3256	1559.42 ± 1.8
298.15 K, c1 = 0.06528	1576.94 ± 1.9
298.15 K, c1 = 0.09771	1573.63 ± 1.9
298.15 K, c1 = 0.1275	1570.6 ± 1.9
298.15 K, c1 = 0.1846	1564.86 ± 1.9
298.15 K, c1 = 0.2451	1558.88 ± 1.8
298.15 K, c1 = 0.3239	1551.22 ± 1.8
303.15 K, c1 = 0.0649	1567.64 ± 1.9
303.15 K, c1 = 0.09714	1564.39 ± 1.9
303.15 K, c1 = 0.1268	1561.42 ± 1.9
303.15 K, c1 = 0.1835	1555.75 ± 1.9
303.15 K, c1 = 0.2436	1549.77 ± 1.8
303.15 K, c1 = 0.322	1542.04 ± 1.8
308.15 K, c1 = 0.06453	1558.35 ± 1.9
308.15 K, c1 = 0.09662	1555.25 ± 1.9
308.15 K, c1 = 0.1261	1552.41 ± 1.9
308.15 K, c1 = 0.1827	1547.01 ± 1.8
308.15 K, c1 = 0.2426	1541.36 ± 1.8
308.15 K, c1 = 0.3209	1534.08 ± 1.8

C1COCCOCCOCCOCCOCCO1 [1,4,7,10,13,16-hexaoxacyclooctadecane] + O
Conditions	mass density [kg/m3]
293.15 K, c1 = 0.0406	999.92 ± 0.26
293.15 K, c1 = 0.07841	1001.5 ± 0.26
293.15 K, c1 = 0.1209	1003.25 ± 0.27
293.15 K, c1 = 0.1782	1005.57 ± 0.28
293.15 K, c1 = 0.2079	1006.75 ± 0.28
293.15 K, c1 = 0.2528	1008.52 ± 0.29
293.15 K, c1 = 0.3203	1011.12 ± 0.3
298.15 K, c1 = 0.04054	998.67 ± 0.26
298.15 K, c1 = 0.07831	1000.21 ± 0.26
298.15 K, c1 = 0.1207	1001.91 ± 0.27
298.15 K, c1 = 0.1779	1004.16 ± 0.27
298.15 K, c1 = 0.2076	1005.32 ± 0.28
298.15 K, c1 = 0.2524	1007.03 ± 0.28
298.15 K, c1 = 0.3198	1009.57 ± 0.29
303.15 K, c1 = 0.04049	997.39 ± 0.27
303.15 K, c1 = 0.0782	998.84 ± 0.26
303.15 K, c1 = 0.1205	1000.51 ± 0.26
303.15 K, c1 = 0.1777	1002.72 ± 0.27
303.15 K, c1 = 0.2073	1003.84 ± 0.27
303.15 K, c1 = 0.252	1005.51 ± 0.28
303.15 K, c1 = 0.3193	1008 ± 0.29
308.15 K, c1 = 0.04042	995.61 ± 0.27
308.15 K, c1 = 0.07806	997.09 ± 0.27
308.15 K, c1 = 0.1203	998.72 ± 0.26
308.15 K, c1 = 0.1774	1000.89 ± 0.26
308.15 K, c1 = 0.2069	1001.99 ± 0.27
308.15 K, c1 = 0.2515	1003.65 ± 0.27
308.15 K, c1 = 0.3187	1006.08 ± 0.28
